{"source": "ChEMBL document CHEMBL1201862", "about": "“PubChem BioAssay data set” (2004)", "key": {"[1]": {"test": "A cytotoxicity screen of small molecule inhibitors of the PhoP region in Salmonella typhi identified in the primary screen. [Related pubchem assays: 1850, 1864, 1985 ]", "type": "functional"}, "[2]": {"target": "Melanin-concentrating hormone receptor 1 (Homo sapiens, UniProt Q99705)", "sequence (Q99705 whole entry)": "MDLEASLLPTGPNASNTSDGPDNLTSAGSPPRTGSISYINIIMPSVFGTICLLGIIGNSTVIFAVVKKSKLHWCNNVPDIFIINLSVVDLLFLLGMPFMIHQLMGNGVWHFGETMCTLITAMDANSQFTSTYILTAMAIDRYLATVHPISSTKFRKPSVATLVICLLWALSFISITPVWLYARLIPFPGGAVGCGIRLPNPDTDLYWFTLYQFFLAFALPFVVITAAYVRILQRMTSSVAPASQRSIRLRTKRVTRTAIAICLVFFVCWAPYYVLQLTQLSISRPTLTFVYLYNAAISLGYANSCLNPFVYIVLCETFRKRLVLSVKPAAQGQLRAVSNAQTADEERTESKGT", "test": "Late-stage fluorescence-based counterscreen for antagonists of the G-protein coupled receptor 7 (GPR7): cell-based dose response assay to identify antagonists of the melanin-concentrating hormone receptor 1 (MCHR1). [Related pubchem assays (depositor defined):AID1861, AID1880, AID1952, AID2148, AID2251, AID2257, AID485339]", "type": "functional"}, "[3]": {"target": "T1, Cytochrome P450 1A2 (Homo sapiens, UniProt P05177)", "T1 sequence (P05177 whole entry)": "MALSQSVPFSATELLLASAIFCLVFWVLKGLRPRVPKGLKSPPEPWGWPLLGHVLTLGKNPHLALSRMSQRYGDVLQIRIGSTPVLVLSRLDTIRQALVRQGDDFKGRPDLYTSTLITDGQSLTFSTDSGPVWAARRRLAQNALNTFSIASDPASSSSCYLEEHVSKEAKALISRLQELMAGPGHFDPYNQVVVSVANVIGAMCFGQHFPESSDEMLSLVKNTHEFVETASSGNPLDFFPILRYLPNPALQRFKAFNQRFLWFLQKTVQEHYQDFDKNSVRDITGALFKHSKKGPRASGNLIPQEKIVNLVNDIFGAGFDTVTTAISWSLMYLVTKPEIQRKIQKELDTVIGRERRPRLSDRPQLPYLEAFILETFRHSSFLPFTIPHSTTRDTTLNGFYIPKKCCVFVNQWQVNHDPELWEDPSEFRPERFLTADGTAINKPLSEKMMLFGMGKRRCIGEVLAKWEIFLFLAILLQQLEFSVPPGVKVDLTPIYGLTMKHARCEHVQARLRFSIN"}, "[4]": {"target": "Eukaryotic translation initiation factor 4E (Mus musculus, UniProt P63073)", "sequence (P63073 whole entry)": "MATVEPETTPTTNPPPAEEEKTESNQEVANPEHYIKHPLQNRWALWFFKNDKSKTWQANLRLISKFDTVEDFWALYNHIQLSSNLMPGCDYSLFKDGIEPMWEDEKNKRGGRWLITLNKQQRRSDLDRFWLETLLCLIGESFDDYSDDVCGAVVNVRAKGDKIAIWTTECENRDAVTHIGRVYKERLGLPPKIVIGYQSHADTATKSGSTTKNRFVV", "test": "blockers of eIF4G binding by eIF4E – biochemical, TR-FRET, dose response (AID 855);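 also: potency for disrupting eIF4E binding to eIF4GI seen as loss of FRET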", "type": "functional"}, "[5]": {"target": "T2, Bcl-2-like protein 10 (Homo sapiens, UniProt Q9HD36)", "T2 sequence (Q9HD36 whole entry)": "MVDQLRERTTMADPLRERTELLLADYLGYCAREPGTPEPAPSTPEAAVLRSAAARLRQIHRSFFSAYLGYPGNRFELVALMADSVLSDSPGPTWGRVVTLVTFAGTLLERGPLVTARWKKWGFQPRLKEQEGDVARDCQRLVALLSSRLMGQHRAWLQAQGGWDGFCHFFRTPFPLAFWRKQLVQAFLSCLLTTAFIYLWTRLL", "test": "Bcl-B/TR3 peptide binding disruption – biochemical, fluorescence polarization, FITC-TR3 peptide, selectivity assay for Bfl-1 inhibitor project, primary screen (AID 748)"}, "[6]": {"target": "DNA (cytosine-5)-methyltransferase 1 (Homo sapiens, UniProt P26358)", "test": "inhibition of DNA methylation by DNMT1 – biochemical, fluorescent molecular beacon, confirmation (AID 602386)", "type": "functional"}, "[7]": {"target": "T3, Short transient receptor potential channel 4 (Mus musculus, UniProt Q9QUQ5)", "T3 sequence (Q9QUQ5 whole entry)": "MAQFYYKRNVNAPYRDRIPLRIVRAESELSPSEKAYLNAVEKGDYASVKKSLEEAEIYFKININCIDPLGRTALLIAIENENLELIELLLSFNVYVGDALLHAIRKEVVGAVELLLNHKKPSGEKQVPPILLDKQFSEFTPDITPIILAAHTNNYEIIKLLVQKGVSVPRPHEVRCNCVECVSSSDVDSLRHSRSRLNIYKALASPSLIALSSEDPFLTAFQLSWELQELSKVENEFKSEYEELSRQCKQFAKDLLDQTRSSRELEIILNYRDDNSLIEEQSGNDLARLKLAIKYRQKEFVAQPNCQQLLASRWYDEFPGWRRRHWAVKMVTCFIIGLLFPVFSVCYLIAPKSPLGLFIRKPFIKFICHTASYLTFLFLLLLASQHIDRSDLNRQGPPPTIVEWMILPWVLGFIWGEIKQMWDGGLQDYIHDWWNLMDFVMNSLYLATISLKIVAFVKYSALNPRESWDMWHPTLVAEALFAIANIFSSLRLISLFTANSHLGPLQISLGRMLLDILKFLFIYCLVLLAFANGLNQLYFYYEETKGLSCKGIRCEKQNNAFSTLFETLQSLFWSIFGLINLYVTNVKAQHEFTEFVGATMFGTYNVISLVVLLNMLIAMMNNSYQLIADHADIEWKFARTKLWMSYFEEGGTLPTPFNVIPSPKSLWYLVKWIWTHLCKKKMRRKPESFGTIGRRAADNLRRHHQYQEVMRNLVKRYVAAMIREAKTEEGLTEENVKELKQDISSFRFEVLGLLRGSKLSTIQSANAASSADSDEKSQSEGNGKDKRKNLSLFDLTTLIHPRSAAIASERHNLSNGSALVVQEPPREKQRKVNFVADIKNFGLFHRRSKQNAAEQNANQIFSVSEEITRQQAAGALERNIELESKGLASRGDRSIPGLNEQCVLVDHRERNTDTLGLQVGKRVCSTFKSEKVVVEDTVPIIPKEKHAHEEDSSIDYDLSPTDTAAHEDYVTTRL", "test": "block of DAMGO-driven TRPC4 calcium entry – cell-based, HEK293 TRPC4/mu-opioid, Fluo-4 calcium, dose response (AID 434942)", "type": "functional"}, "[8]": {"target": "Acyl-homoserine lactone acylase PvdQ (Pseudomonas aeruginosa (strain LESB58), UniProt Q9I194)", "sequence (Q9I194 24-193 limits assumed)": "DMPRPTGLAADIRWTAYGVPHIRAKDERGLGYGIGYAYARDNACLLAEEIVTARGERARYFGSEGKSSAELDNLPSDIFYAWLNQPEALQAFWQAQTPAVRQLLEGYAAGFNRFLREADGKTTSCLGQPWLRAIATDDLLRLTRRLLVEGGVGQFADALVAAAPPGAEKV", "sequence (Q9I194 217-762 limits assumed)": "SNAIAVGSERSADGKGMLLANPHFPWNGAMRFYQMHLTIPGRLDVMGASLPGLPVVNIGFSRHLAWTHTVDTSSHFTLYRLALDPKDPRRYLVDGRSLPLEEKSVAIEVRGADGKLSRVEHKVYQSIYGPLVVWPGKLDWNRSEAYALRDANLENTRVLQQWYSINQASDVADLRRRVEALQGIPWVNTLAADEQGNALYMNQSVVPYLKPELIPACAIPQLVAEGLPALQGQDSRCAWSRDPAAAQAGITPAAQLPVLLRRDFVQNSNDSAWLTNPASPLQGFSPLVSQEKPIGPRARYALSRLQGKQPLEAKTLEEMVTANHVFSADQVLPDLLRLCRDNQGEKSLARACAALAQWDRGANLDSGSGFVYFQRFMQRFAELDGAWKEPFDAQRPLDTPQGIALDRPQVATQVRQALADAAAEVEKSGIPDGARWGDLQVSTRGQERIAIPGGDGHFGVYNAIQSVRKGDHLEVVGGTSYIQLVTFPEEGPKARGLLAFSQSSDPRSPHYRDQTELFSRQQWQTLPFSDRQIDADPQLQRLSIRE", "test": "PvdQ acylase enzyme activity blockers – biochemical, fluorescence, plate reader and imaging, cherry-picks, dose response (AID 493231)"}, "[9]": {"test": "Luminescence Cell-Based Dose Confirmation HTS to Identify Inhibitors of Platelet Dense Granule Release. [Related pubchem assays: 1663 (Primary HTS), 1678 (Summary of Project)]", "type": "functional"}, "[10]": {"target": "Luciferin 4-monooxygenase (Photinus pyralis, UniProt P08659)", "sequence (P08659 whole entry)": "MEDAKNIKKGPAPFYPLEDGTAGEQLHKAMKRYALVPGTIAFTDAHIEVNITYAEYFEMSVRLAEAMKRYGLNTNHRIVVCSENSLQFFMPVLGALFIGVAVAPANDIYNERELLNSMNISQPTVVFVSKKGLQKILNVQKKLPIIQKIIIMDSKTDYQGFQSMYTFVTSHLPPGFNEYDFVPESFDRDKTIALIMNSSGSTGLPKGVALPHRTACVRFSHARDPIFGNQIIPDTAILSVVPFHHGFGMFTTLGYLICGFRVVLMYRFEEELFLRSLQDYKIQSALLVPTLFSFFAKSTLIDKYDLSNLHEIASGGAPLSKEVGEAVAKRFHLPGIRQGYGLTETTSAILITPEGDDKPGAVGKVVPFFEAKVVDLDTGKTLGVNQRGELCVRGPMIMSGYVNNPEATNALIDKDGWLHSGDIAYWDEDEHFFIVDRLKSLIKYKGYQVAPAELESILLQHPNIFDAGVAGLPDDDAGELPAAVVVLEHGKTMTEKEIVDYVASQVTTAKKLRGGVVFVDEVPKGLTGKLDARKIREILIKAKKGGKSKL", "test": "inhibition of purified Photinus pyralis luciferase – biochemical, luminescence, dose response (AID 1891)"}, "[11]": {"target": "Cytochrome P450 3A4 (Homo sapiens, UniProt P08684)", "conditions": "Potency"}, "[12]": {"target": "Cytochrome P450 2C9 (Homo sapiens, UniProt P11712)", "conditions": "Potency"}, "[13]": {"system": "HeLa", "test": "viability loss in HeLa cells – cell-based, 24 h, cherry-picked samples, cytotoxicity control, dose response (AID 504726)", "type": "functional", "conditions": "Homo sapiens"}, "[14]": {"target": "Peroxisome proliferator-activated receptor gamma/Nuclear receptor coactivator 2 (Homo sapiens, UniProt P37231)", "type": "functional"}, "[15]": {"target": "Trypsin (Sus scrofa, UniProt P00761)", "test": "trypsin protease activity blockade – biochemical, quenched peptide fluorescence, cherry-pick, selectivity assay for Rce1 protease inhibitor project, dose response (AID 488789)"}, "[16]": {"target": "Peroxisome proliferator-activated receptor gamma/Nuclear receptor coactivator 1 (Homo sapiens, UniProt P37231)", "type": "functional"}, "[17]": {"target": "Peroxisome proliferator-activated receptor gamma/Nuclear receptor coactivator 3 (Homo sapiens, UniProt P37231)", "sequence (P37231 whole entry)": "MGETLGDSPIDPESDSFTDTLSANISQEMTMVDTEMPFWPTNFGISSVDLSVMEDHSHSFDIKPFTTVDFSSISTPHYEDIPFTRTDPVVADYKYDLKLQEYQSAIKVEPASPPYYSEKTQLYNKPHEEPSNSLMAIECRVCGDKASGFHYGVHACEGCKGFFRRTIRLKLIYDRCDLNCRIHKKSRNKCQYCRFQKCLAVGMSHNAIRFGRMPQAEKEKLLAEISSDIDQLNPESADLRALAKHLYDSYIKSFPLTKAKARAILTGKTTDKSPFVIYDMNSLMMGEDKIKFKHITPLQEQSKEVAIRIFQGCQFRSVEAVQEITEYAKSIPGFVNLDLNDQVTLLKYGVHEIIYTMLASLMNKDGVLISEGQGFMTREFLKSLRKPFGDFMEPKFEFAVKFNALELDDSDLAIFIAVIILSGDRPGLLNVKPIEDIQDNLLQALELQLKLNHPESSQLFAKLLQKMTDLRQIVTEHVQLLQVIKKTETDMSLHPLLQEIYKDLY", "sequence (Q9Y6Q9 whole entry, further chain)": "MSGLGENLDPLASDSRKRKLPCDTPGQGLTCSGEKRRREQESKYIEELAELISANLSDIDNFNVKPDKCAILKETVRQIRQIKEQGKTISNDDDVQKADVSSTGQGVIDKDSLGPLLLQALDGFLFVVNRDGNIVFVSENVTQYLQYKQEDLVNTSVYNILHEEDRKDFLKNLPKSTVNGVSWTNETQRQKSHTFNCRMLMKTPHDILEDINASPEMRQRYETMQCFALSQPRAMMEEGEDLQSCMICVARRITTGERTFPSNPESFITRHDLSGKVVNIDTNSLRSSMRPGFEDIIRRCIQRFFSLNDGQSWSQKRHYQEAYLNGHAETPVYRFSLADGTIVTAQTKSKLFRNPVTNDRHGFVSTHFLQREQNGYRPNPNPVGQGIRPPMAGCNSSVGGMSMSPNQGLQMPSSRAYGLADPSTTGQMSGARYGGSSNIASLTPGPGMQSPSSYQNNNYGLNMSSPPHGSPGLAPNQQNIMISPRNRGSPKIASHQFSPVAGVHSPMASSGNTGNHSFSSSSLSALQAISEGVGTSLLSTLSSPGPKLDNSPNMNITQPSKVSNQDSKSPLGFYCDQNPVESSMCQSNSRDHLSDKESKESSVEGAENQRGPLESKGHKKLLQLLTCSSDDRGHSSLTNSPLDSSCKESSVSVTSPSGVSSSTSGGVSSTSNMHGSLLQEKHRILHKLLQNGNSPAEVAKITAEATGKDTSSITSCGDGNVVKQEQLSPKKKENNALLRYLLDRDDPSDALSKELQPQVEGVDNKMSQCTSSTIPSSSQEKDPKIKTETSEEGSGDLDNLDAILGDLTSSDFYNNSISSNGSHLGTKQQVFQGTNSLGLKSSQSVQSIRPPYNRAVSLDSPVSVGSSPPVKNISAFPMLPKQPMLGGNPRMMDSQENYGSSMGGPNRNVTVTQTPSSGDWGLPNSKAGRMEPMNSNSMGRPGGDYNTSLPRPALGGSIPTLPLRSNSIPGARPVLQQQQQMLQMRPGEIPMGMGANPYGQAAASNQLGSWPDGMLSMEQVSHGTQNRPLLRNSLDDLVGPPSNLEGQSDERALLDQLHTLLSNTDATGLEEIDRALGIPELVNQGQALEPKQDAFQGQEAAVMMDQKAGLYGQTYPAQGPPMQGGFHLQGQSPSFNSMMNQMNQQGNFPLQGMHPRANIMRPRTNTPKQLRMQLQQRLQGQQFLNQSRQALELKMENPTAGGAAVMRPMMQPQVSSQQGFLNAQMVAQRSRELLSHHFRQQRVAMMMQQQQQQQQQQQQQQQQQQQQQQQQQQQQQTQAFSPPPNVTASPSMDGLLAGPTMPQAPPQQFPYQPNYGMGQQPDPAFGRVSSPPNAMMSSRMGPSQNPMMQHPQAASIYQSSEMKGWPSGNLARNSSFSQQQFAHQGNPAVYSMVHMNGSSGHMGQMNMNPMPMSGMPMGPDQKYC", "type": "functional"}, "[18]": {"system": "HEK293", "test": "cells", "conditions": "Homo sapiens"}, "[19]": {"target": "Nucleotide-binding oligomerization domain-containing protein 2 (Homo sapiens, UniProt Q9HC29)", "sequence (Q9HC29 whole entry, the tested form may be a part)": "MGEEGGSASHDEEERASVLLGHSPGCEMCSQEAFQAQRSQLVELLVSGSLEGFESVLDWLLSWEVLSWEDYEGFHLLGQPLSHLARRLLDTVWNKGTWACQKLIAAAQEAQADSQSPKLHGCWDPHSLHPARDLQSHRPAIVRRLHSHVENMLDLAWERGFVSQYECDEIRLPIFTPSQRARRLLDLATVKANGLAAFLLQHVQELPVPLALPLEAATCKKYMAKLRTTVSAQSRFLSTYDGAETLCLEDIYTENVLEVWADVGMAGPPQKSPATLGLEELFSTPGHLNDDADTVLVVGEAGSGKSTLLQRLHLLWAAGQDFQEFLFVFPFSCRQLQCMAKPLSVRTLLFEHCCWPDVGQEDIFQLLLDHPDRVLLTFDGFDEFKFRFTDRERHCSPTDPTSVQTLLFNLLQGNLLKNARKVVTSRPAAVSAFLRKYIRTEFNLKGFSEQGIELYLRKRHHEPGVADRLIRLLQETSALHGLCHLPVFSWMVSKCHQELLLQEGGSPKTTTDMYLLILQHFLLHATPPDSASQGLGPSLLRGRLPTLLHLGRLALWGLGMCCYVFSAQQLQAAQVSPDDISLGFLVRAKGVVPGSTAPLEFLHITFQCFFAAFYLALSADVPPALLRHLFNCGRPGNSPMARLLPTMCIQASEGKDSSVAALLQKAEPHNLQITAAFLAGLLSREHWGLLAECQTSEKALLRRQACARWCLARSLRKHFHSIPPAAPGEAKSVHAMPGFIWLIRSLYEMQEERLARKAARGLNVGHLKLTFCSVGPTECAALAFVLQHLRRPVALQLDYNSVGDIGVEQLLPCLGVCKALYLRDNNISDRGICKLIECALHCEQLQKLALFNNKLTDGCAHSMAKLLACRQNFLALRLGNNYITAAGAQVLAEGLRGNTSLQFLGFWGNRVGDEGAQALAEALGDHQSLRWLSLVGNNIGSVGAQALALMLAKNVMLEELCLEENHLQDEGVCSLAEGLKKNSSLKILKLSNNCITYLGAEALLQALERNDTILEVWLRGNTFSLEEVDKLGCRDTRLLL", "test": "PubChem AID 2334", "type": "functional"}, "[20]": {"target": "Tumor necrosis factor (Homo sapiens, UniProt P01375)", "test": "analog potency on TNFa NF-kB signaling – cell-based, revised, SAR follow-up (AID 2337)", "type": "functional"}, "[21]": {"target": "T4, Nucleotide-binding oligomerization domain-containing protein 1 (Homo sapiens, UniProt Q9Y239)", "T4 sequence (Q9Y239 whole entry)": "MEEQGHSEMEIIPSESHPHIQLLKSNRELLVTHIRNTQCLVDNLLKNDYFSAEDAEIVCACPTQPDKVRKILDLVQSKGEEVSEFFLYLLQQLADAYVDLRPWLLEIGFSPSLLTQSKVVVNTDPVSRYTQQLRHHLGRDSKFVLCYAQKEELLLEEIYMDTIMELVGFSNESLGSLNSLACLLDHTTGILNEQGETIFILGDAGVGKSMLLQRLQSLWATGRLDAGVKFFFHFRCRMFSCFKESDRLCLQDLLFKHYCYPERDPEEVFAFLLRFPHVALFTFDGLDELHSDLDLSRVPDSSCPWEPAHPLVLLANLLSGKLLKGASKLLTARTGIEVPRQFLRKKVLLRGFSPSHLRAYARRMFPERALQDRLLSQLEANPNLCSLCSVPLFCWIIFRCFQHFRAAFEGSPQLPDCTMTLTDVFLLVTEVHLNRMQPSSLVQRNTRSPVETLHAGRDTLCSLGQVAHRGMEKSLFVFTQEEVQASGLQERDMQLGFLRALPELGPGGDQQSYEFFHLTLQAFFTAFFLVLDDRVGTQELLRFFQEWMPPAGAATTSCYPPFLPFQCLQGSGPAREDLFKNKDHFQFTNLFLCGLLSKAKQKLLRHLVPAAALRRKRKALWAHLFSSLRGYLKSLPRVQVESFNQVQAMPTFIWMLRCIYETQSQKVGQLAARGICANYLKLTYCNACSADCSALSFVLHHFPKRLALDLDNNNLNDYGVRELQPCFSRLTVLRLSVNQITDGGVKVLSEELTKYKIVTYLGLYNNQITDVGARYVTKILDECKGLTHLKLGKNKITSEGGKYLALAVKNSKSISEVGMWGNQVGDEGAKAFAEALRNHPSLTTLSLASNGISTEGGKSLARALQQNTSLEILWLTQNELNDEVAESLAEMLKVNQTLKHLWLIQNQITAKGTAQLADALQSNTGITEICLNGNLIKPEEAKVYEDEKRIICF", "test": "blockers of NOD1 pathway activity – revised, SAR follow-up (AID 2333)", "type": "functional"}}, "note": "The source made the active and inactive calls.", "data": [{"compound": "COc1ccccc1Nc1cc(C(=O)NCc2cccnc2)c2ccccc2n1", "values": [{"measurement": "EC50", "setting": "[1]", "value": "> 50 µM (active)"}]}, {"compound": "CC(C)c1ccc(-n2ncc(Cl)c(NCc3ccccc3)c2=O)cc1", "values": [{"measurement": "IC50", "setting": "[2]", "value": "6.9 µM (active)"}]}, {"compound": "O=C(Oc1c(Br)cc(C(=S)N2CCOCC2)cc1Br)c1ccc(Cl)cc1", "values": [{"measurement": "AC50", "setting": "[3]", "value": "17.8 µM (inconclusive)"}, {"measurement": "IC50", "setting": "[4]", "value": "> 64 µM (inactive)"}]}, {"compound": "COCCn1c(SCC(=O)Nc2ncc(Cl)c(C)c2Cl)nc2ccccc21", "values": [{"measurement": "IC50", "setting": "[5]", "value": "90.6 µM (inactive)"}]}, {"compound": "Cc1cccc(OCC(=O)Nc2ccc(N3CCCC3)cc2)c1C", "values": [{"measurement": "IC50", "setting": "[6]", "value": "> 99 µM (inactive)"}, {"measurement": "IC50", "setting": "[5]", "value": "96.2 µM (inactive)"}]}, {"compound": "Clc1ccc(CN2C3=NCCN3c3ccccc32)cc1", "values": [{"measurement": "EC50", "setting": "[7]", "value": "1.5 µM (active)"}, {"measurement": "EC50", "setting": "[1]", "value": "> 50 µM (active)"}]}, {"compound": "CCC(C)(C)NC(=O)c1cc([N+](=O)[O-])ccc1N1CCCCC1", "values": [{"measurement": "AC50", "setting": "[8]", "value": "13.7 µM (active)"}]}, {"compound": "COc1ccc(-c2nc(-c3ccc(Br)cc3)no2)c(OC)c1", "values": [{"measurement": "EC50", "setting": "[9]", "value": "> 112 µM (not active)"}, {"measurement": "EC50", "setting": "[10]", "value": "> 112 µM (not active)"}, {"measurement": "IC50", "setting": "[4]", "value": "> 64 µM (inactive)"}]}, {"compound": "N#Cc1cn(Cc2ccccc2)c2ccccc12", "values": [{"measurement": "AC50", "setting": "[8]", "value": "45 µM (active)"}]}, {"compound": "COc1ccc(Oc2c(Cl)cnn(-c3ccc4c(c3)CCCC4)c2=O)cc1", "values": [{"measurement": "IC50", "setting": "[2]", "value": "2.1 µM (active)"}]}, {"compound": "CCCCCC(=O)c1cc(CC(C(=O)OC)C(=O)OC)cc2cc(OC)c(OC)cc12", "values": [{"measurement": "AC50", "setting": "[11]", "value": "3.98 µM (inconclusive)"}, {"measurement": "AC50", "setting": "[12]", "value": "3.16 µM (inconclusive)"}]}, {"compound": "Cc1cccc(N(Cc2ccccc2)C(=O)C2CCN(C(=O)c3ccccc3C)CC2)c1", "values": [{"measurement": "AC50", "setting": "[13]", "value": "135 µM (active)"}]}, {"compound": "Cc1ccc(-c2cc(-c3ccccc3)c(C#N)c(Br)n2)cc1", "values": [{"measurement": "EC50", "setting": "[14]", "value": "34.1 µM (not active)"}, {"measurement": "AC50", "setting": "[15]", "value": "11.9 µM (active)"}, {"measurement": "EC50", "setting": "[16]", "value": "58.7 µM (not active)"}, {"measurement": "EC50", "setting": "[17]", "value": "58.2 µM (not active)"}]}, {"compound": "CCOC(=O)c1c(NC(=O)c2cccs2)sc2c1CC(C)(C)OC2", "values": [{"measurement": "IC50", "setting": "[18]", "value": "> 20 µM (inactive)"}, {"measurement": "IC50", "setting": "[19]", "value": "> 20 µM (inactive)"}, {"measurement": "IC50", "setting": "[20]", "value": "> 20 µM (inactive)"}, {"measurement": "IC50", "setting": "[21]", "value": "> 20 µM (inactive)"}]}, {"compound": "NC(=S)N/N=C/c1ccc(-c2ccc([N+](=O)[O-])cc2)o1", "values": [{"measurement": "AC50", "setting": "[13]", "value": "84.6 µM (active)"}]}]}
